In article doi:10.1101/2025.04.23.650324v1 (biorxiv, 2025):
In brackets after ≈: the same amount, converted by molar mass.

Key:
Assay in all cases: microbe, parasite or virus in culture
[1] = tested on: Acinetobacter baumannii #10; details: 18 h, read-out: ENOblock MIC (mg/L)
[2] = tested on: Acinetobacter baumannii #11; details: 18 h, read-out: ENOblock MIC (mg/L)
[3] = tested on: Acinetobacter baumannii #14; details: 18 h, read-out: ENOblock MIC (mg/L)
[4] = tested on: Acinetobacter baumannii #16; details: 18 h, read-out: ENOblock MIC (mg/L)
[5] = tested on: Acinetobacter baumannii #17; details: 18 h, read-out: ENOblock MIC (mg/L)
[6] = tested on: Acinetobacter baumannii #19; details: 18 h, read-out: ENOblock MIC (mg/L)
[7] = tested on: Acinetobacter baumannii #1; details: 18 h, read-out: ENOblock MIC (mg/L)
[8] = tested on: Acinetobacter baumannii #20; details: 18 h, read-out: ENOblock MIC (mg/L)
[9] = tested on: Acinetobacter baumannii #21; details: 18 h, read-out: ENOblock MIC (mg/L)
[10] = tested on: Acinetobacter baumannii #22; details: 18 h, read-out: ENOblock MIC (mg/L)
[11] = tested on: Escherichia coli CRA17; details: CRA17, 18 h, read-out: ENOblock MIC (mg/L)
[12] = tested on: Escherichia coli CRA20; details: CRA20, 18 h, read-out: ENOblock MIC (mg/L)
[13] = tested on: Escherichia coli CRA32; details: CRA32, 18 h, read-out: ENOblock MIC (mg/L)
[14] = tested on: Escherichia coli CRA57; details: CRA57, 18 h, read-out: ENOblock MIC (mg/L)
[15] = tested on: Escherichia coli CRA5; details: CRA5, 18 h, read-out: ENOblock MIC (mg/L)
[16] = tested on: Escherichia coli CRA7; details: CRA7, 18 h, read-out: ENOblock MIC (mg/L)
[17] = tested on: Escherichia coli CRA8; details: CRA8, 18 h, read-out: ENOblock MIC (mg/L)
[18] = tested on: Escherichia coli R2; details: R2, 18 h, read-out: ENOblock MIC (mg/L)
[19] = tested on: Escherichia coli R5; details: R5, 18 h, read-out: ENOblock MIC (mg/L)
[20] = tested on: Escherichia coli R6; details: R6, 18 h, read-out: ENOblock MIC (mg/L)
[21] = tested on: Klebsiella pneumoniae Kp10; details: KP10, 18 h, read-out: ENOblock MIC (mg/L)
[22] = tested on: Klebsiella pneumoniae Kp11; details: KP11, 18 h, read-out: ENOblock MIC (mg/L)
[23] = tested on: Klebsiella pneumoniae Kp12; details: KP12, 18 h, read-out: ENOblock MIC (mg/L)
[24] = tested on: Klebsiella pneumoniae Kp13; details: KP13, 18 h, read-out: ENOblock MIC (mg/L)
[25] = tested on: Klebsiella pneumoniae Kp14; details: KP14, 18 h, read-out: ENOblock MIC (mg/L)
[26] = tested on: Klebsiella pneumoniae Kp15; details: KP15, 18 h, read-out: ENOblock MIC (mg/L)
[27] = tested on: Klebsiella pneumoniae Kp6; details: KP6, 18 h, read-out: ENOblock MIC (mg/L)
[28] = tested on: Klebsiella pneumoniae Kp7; details: KP7, 18 h, read-out: ENOblock MIC (mg/L)
[29] = tested on: Klebsiella pneumoniae Kp8; details: KP8, 18 h, read-out: ENOblock MIC (mg/L)
[30] = tested on: Klebsiella pneumoniae Kp9; details: KP9, 18 h, read-out: ENOblock MIC (mg/L)

With `NCCOCCOCCNC(=O)Cc1ccc(Nc2nc(NCc3ccc(F)cc3)nc(NCC3CCCCC3)n2)cc1` [ENOblock] the MIC [1] was 16 mg/L (≈ 26.9 µM), the MIC [2] was 16 mg/L (≈ 26.9 µM) and the MIC [3] was 16 mg/L (≈ 26.9 µM). It also gave an MIC [4] of 16 mg/L (≈ 26.9 µM), an MIC [5] of 16 mg/L (≈ 26.9 µM) and an MIC [6] of 32 mg/L (≈ 53.8 µM). The MIC [7] was 16 mg/L (≈ 26.9 µM), the MIC [8] was 8 mg/L (≈ 13.5 µM) and the MIC [9] was 8 mg/L (≈ 13.5 µM). It also gave an MIC [10] of 16 mg/L (≈ 26.9 µM), an MIC [11] of 32 mg/L (≈ 53.8 µM) and an MIC [12] of 32 mg/L (≈ 53.8 µM). For the same molecule, the MIC [13] was 8 mg/L (≈ 13.5 µM), the MIC [14] was 16 mg/L (≈ 26.9 µM) and the MIC [15] was 16 mg/L (≈ 26.9 µM). It also gave an MIC [16] of 16 mg/L (≈ 26.9 µM), an MIC [17] of 16 mg/L (≈ 26.9 µM) and an MIC [18] of 32 mg/L (≈ 53.8 µM). The MIC [19] was 32 mg/L (≈ 53.8 µM), the MIC [20] was 16 mg/L (≈ 26.9 µM) and the MIC [21] was 32 mg/L (≈ 53.8 µM). For the same molecule, the MIC [22] was 16 mg/L (≈ 26.9 µM), the MIC [23] was 64 mg/L (≈ 108 µM) and the MIC [24] was 64 mg/L (≈ 108 µM). It also gave an MIC [25] of 64 mg/L (≈ 108 µM), an MIC [26] of 64 mg/L (≈ 108 µM) and an MIC [27] of 32 mg/L (≈ 53.8 µM). For the same molecule, the MIC [28] was 16 mg/L (≈ 26.9 µM), the MIC [29] was 64 mg/L (≈ 108 µM) and the MIC [30] was 64 mg/L (≈ 108 µM).
